Results from patent US10028971B2, “Compositions and methods for treating psychiatric disorders” (GOSFORTH CENTRE (HOLDINGS) PTY LTD., priority 2008, dated 2018).
Where two headings read alike, the source gives them in different places.

What was measured:
adults with ADHD = tested on: adults with ADHD
Description: In the clinical setting a number of adults with ADHD experienced a combination therapy of stimulant medication (dexamphetamine) in combination with sodium valproate (VPA). The initial dosages used were from 15 to 70 mg/day of dexamphetamine and from 100 to 700 mg/day of VPA (Epilim) (=approximately 2 to 10 mg/kg/day).
The determination of the dose for the dexamphetamine was undertaken in a clinical sensitive open label manner. The dose was titrated upwards dependent on the clinical response and the freedom from side-effects. The dose range was between 15 and 70 mg a day. The frequency of the dosing also varied dependent upon the clinical response. The usual dose interval was between two to four hours. This dosing adjustment took place prior to the commencement of the sodium valproate. The sodium valproate medication was initiated once a day at 50 mg tablet or elixir and titrated upwards dependent on response, but not more than one increase every three days. The dose was given as a once or twice a day regime. During the titration phase, if clinically possible, no other adjustments to the pharmacotherapy were undertaken.

[1] = tested on: individuals with sleep disorders; assay: Sleep disorders, clinical observation; assay type: in vivo, human; details: person, chronic insomnia, restless legs; sodium valproate added to dexamphetamine 25 mg
[2] = tested on: individuals with developmental dyspraxia / poor coordination; assay: Treatment of developmental dyspraxia, clinical observation; assay type: in vivo, human; details: person
Excerpt: Many of the individuals treated at this clinic, with a diagnosis of ADHD and/or pervasive development disorder such Asperger's Syndrome or autism also present with symptoms consistent with a diagnosis of a developmental coordination disorder. They are often described as ‘unco’ (unco-ordinated) by their peers and experience victimization, poor self-esteem and frustration as a consequence of their poor coordination. […] Individuals have described a sense of having more time to coordinate movements and to understand and integrate their own activity appropriately within a team sport such as soccer, which has previously eluded them. Individuals have felt frustration at being able to practise repeatedly an activity or skill only to be unable to put it into practice when required, within the play of a match. It is proposed that individuals were previously unable to process and plan their own coordination but remain aware of the general activity in which they were participating.

[3] = tested on: individual with a history of a head injury; assay: Head injury with acquired ADHD syndrome, clinical case; assay type: in vivo, human; details: person
Excerpt: A person, no history of ADHD in childhood. Involved in a serious motor vehicle accident the with a depressed skull fracture and frontal lobe involvement. Subsequent history consistent with a acquired syndrome of ADHD. Subsequent development of co-morbid diagnoses included in alcohol dependence, pathological gambling and major depression.

[4] = tested on: mood stabilisation or epileptic symptoms or events; details: adults, cited from earlier work
[5] = tested on: adherence to medication regime; details: person
Description: As a result, taking medication becomes an automatic activity which doesn't require a high level of attention and motivation.
The individual experiences an improvement in the ability to efficiently and effectively attend to a task in hand, without also needing to expend extra cognitive effort to remember which medication to take and at what times.

[6] = tested on: individuals with MCI or dementia; assay: Mild cognitive impairment and dementia, clinical cases (Developmental Eye Movement test, Alzheimer's Quick Test); assay type: in vivo, human; details: person
Excerpt: A married person with a history of good cognitive functioning until last 4-5 yrs when noted by both their spouse and themself to becoming increasingly socially withdrawn primarily because of the difficulty in listening without distraction during social interaction, no known childhood or adult history of prior attentional or impulsive disorders. It has been clinically observed by the inventor that individuals treated with low dose antiepileptic were enhanced in their ability to discriminate irrelevant from the relevant sound was enhanced. […] On ceasing the medication there was an initial improvement again over the preceding 3 to 7 days followed by a loss of the therapeutic effects and returned to their pre-medication function. On the ressumption of the 12.5 mg phenytoin there was a return of the improved function. On this second occasion they were more aware of the benefits and also the gradual return of the detrimental clinic effects. During the clinical assessment it was noted that they had more flexibility in their conversation and more natural use of non-verbal cues, there was also enhancement of their egocentric gaze. […] These benefits were also noted by their spouse. […] Again these medications were ceased resulting in a loss of associated benefits. With each trial of medication they became more apparent to the patient and their spouse of the benefits of the therapy. They attempted whilst not taking the medication to communicate and follow the conversation in a way that they had been able to whilst on treatment. They found when attempting to do so they became mentally exhausted and unable to sustain the effort required for the interaction. The improvements noted clinically and also recorded using the Developmental Eye Movement test and a measure of parietal function the Alzheimer's Quick Test. Married person diagnosed with fronto-temporal dementia. they had been assessed by neuropsychologist, and geriatrician and psychiatrist to confirm this diagnosis. […] They then relied on others to make decisions for […]. They had gradually become socially disengaged finding such interactions distressing and demanding. […] Despite ongoing difficulties of word finding they were able to socially interact more spontaneously than they had done for many years. And have confidence in areas of conversation that they previously would have avoided. […] On two occasions the medication was withdrawn and then reintroduced, due to the experimental nature of treatment and concern that there might be a significant placebo effect. […] Following the subsequent reduction there was a return of the improvement previously noted.

CCCC(CCC)C(=O)O.[Na] [sodium valproate, sodium di-n-propylacetic acid]
clinical outcome (case) (adults with ADHD; adult female, sodium valproate maximum 150 mg added to methylphenidate): Improvement
group outcome of combination therapy (adults with ADHD; adults with ADHD, Methylphenidate 40 mg/d, Valproate 100 mg/d, Phenytoin 50 mg/d): successfully treated
clinical assessment under combination therapy (adults with ADHD; adults with ADHD, Valproate 50-300 mg/d with Dexamphetamine 20-75 mg/d): overall improvement in psychosocial functioning
group outcome of combination therapy (adults with ADHD; adults with ADHD, dexamphetamine 20-45 mg/d, Valproate 100-400 mg/d, Phenytoin 12.5-50 mg/d): successfully treated
group outcome of combination therapy (adults with ADHD; adults with ADHD, median 40 mg/d Dexamphetamine, 120 mg/d Sodium Valproate, 25 mg/d Topiramate): successfully treated
group outcome of combination therapy (adults with ADHD; adults with ADHD, methylphenidate 30-125 mg/d with Valproate 50-200 mg/d): successfully treated
effect of higher doses (adults with ADHD; human, in vivo): general cognitive slowing and the resultant loss of efficacy
clinical outcome (case) (adults with ADHD; person, ADHD, anorexia nervosa, borderline personality disorder, sodium valproate 200 mg with dexamphetamine): responded
clinical outcome (case) (adults with ADHD; person, ADHD, low dose sodium valproate 50 mg added to psycho stimulant): improvement in their egocentric gaze and improved cognition
clinical outcome (case) (adults with ADHD; person, ADHD, sodium valproate 100 mg a day added to dexamphetamine 40 mg): improvement with more organised thoughts
self-described improvement in ability to study (adults with ADHD; person, ADHD, sodium valproate (50 mg) added to psycho stimulant): 50%
clinical outcome (case) (adults with ADHD; person, 100 mg sodium valproate added to methylphenidate 55 mg): enhanced ability to maintain conversation, improved cognition, improved assertiveness and self organisation
clinical outcome (case) (adults with ADHD; person, sodium valproate (up to 500 mg a day) added to dexamphetamine 20 mg): Further benefit
clinical outcome (case) (adults with ADHD; person, sodium valproate maximum 400 mg added to dexamphetamine): good effect
clinical outcome (case) (adults with ADHD; person, valproate dose reached 150 mg, with psycho stimulant): benefits were lost
clinical outcome on sleep (case) [1]: less effort was required to initiate sleep
clinical outcome (case) ([2]; ADHD, dexamphetamine 25 mg daily augmented with atomexetine 60 mg and sodium valproate 150 mg): Significant improvement in psychosocial functioning
clinical outcome (case) ([2]; Sodium valproate 50 mg increased to 100 mg with stimulant): improved coordination, improved school attendance, improved cognition and report grades
clinical outcome (case) ([3]; sodium valproate 150 mg added to dexamphetamine 50 mg): Improved social interaction and egocentric eye gaze
clinical outcome (case) ([3]; sodium valproate above 150 mg): loss of benefit
dose range in which control of symptoms of mania occurs ([4]; mania (e.g. bipolar disorder), Epilim product information (Sanofi-Aventis)): 1,000 to 2,000 mg/day
dose range in which control of symptoms of mania occurs ([4]; mania, Epilim product information): 20 to 30 mg/kg/day
clinical outcome (case) ([5]; complex regime, no ADHD, ASD or dementia, Sodium valproate 100 mg added): enhanced ability to track their thoughts with less effort
clinical outcome (case) ([5]; sodium valproate reduced to 100 mg with dexamphetamine 40 mg): improved efficacy, cognition, organisation and compliance with medication
clinical outcome (case) ([6]; sodium valproate 40 mg): enhanced ability to follow the train of conversation
clinical outcome (case) ([6]; sodium valproate 80 mg): loss of these benefits
